A melting point compilation (Tetko et al.; mined from patent text by program, amines drawn as free bases though some values may be those of a salt)

Structure (SMILES) | melting point [°C]
CC(=O)Nc1ccc(-c2cc(C(=O)c3cc(-c4ccc(NC(C)=O)cc4)c(N4CCOCC4)s3)sc2N2CCOCC2)cc1 | 140 to 142
NC(=O)N1C(=O)C(=C(OC(=O)C=CC(=O)O)c2cccs2)c2cc(F)c(Cl)cc21 | 229 to 232
CCOC(=O)C1CCCN(C(=O)CCn2cnc3c(=O)[nH]cnc32)C1 (stereo not given) | 171 to 175
CCOC(=O)c1cn(-c2nc(NC)c(F)cc2F)c2c(Cl)c(F)c(F)cc2c1=O | 207 to 209
Cc1oc(-c2ccco2)nc1COc1ccc(COc2nn(Cc3ccc(OCc4nc(-c5ccco5)oc4C)cc3)cc2CO)cc1 | 80 to 81
CNc1ccc([N+](=O)[O-])c(C(=O)NCC2CCN(C(c3ccccc3)c3ccccc3)CC2)c1 | 185
CCCc1nc2cnc3cc(OCC(=O)N4CCOCC4)ccc3c2s1 | 133 to 136
COc1ccc(-c2cc(=Nc3c(C)cc(C)cc3C)n(C)c(SC)n2)cc1OC | 172 to 173
CC[C@H](COCCCc1ccccc1)n1cnc2c(N)nc3ccccc3c21 | 118 to 120
Cc1ccc(S(=O)(=O)OC2=C(Br)C(=O)c3c(ccc4c3CCC(C)(C)O4)C2=O)cc1 | 109 to 115
CC(C)CC(C(=O)OCc1ccc([N+](=O)[O-])cc1)N(C(=O)OC(C)(C)C)C1CC1 (stereo not given) | 139 to 143
Nc1ccccc1NC(=O)c1ccc(COC(=O)NCc2cccnc2)cc1 | 139 to 141
N#Cc1cc(-c2cc(C(F)F)c3c(-c4cccnc4)nn(C4CCCCO4)c3n2)ccc1N (stereo not given) | 140
COC(=O)C1CSC(=O)C1 (stereo not given) | 33 to 35
Cc1cc(Oc2ccc(Cl)c(C(F)(F)F)c2)ncc1N | 105 to 107
CCOC(=O)C(=NO)C(=O)OCC | 86.5 to 88
C[C@]12CC/C(=C\F)C=C1CC[C@@H]1[C@@H]2CC[C@]2(C)C(=O)CC[C@@H]12 | 101 to 102
C=CC[C@@](O)(C(=O)O)c1ccccc1 | 132
CN(c1cc(OC(F)(F)F)cc2cc(C(N)=O)[nH]c12)S(=O)(=O)c1cccs1 | 228 to 229
N#Cc1ccc(CCC(N)=O)cc1 | 220
O=c1[nH]c2cc([N+](=O)[O-])ccc2n(Cc2ccc(P(=O)(O)O)cc2)c1=O | 253 to 265
CC(C)c1nnn(-c2c(Cl)cccc2Cl)c1COc1ccc(N(C)C(=O)c2ccc(C(=O)O)cc2)c(C(F)(F)F)n1 | 218 to 219
COC(=O)C[C@H](Cc1ccc(-c2ccccc2)cc1)NCP(=O)(OC)OC | 67
CC(C)(C)c1cc2c(c(C(C)(C)C)c1O)CCS2 | 82
O=[N+]([O-])c1sccc1-c1ccc(Cl)cc1 | 108 to 110
Cc1ccccc1SN(C(=O)NC(=O)c1ccccc1Cl)c1ccc(OC(F)(F)F)cc1 | 79 to 80
O=C(NCCO)c1ccc(NS(=O)(=O)c2ccc(F)cc2)cn1 | 144 to 146

Structure (SMILES) | melting point [°C]
C#CCOc1ccc2c(Cl)nnc(C)c2c1 | 178 to 180
CC[C@H]1CN(c2c(F)cc3c(=O)c(C(=O)O)cn4c3c2OC[C@@H]4C)C[C@H]1NC | 211 to 213
CCn1c(=O)n(C2CCN(C(C)(C)CCCN3C(=O)c4ccccc4S3(=O)=O)CC2)c2ccccc21 | 182 to 185
O=C(NCCO)OCc1ccccc1 | 55 to 57
Cc1ccc2c(NN)ccnc2c1NC(=O)c1c(Cl)cccc1Cl | 202 to 204
CSc1cc(C)nc(SC)c1NC(=O)CCCCCSc1nc2ccccc2s1 | 123 to 125
O=C1CCC(c2ccc3c(c2)NC(=O)CS3)=NN1 | 299 to 302
Cc1cc2c(N3CCC(CCO)CC3)ccc(C#N)c2o1 | 106 to 107
O=C(NCC12CC3CC(CC(C3)C1)C2)c1c(Cl)ccc2nc(N3CCC(n4cn[nH]c4=O)CC3)ccc12 | 294 to 295
CC1(C)CC(N2CCCCCC2=O)CC(C)(C)N1O | 212 to 215
Cc1nc(C)n(-c2cc([C@@H]3C[C@H]3c3nc4ccccc4n3C)nc(N)n2)n1 (relative stereo) | 120 to 122
CC12C=CC(=O)C=C1C(Br)CC1C2CCC2(C)C(=O)CCC12 (stereo not given) | 188 to 190
CCOC(=O)c1cn(C)c2c(OCC)csc2c1=O | 198 to 200
CCc1nn(CCNS(=O)(=O)c2cn(C)cn2)c(CC)c1Cc1cc(Cl)cc(Cl)c1 | 172 to 174
CCOC(=O)N1CCC(c2[nH]nc3c2C(=O)c2c(NC(=O)NN4CCOCC4)cccc2-3)CC1 | 206 to 207
CSc1nc(SC)nc(-n2c(C)nc3ccccc32)n1 | 176 to 179
O=C(CCC(=O)c1ccccc1)NCc1ccccc1 | 110 to 112
Cc1c(OCC(=O)O)cc2c(c1Cl)C(=O)C1(CCCC1)C2=O | 204 to 205
COc1ccccc1NC(=O)Nc1nc(N(CCC(=O)O)Cc2cccc(C)c2)nc(N2CCc3ccccc32)n1 | 201
CN1C(=O)CC(C)(C)c2cc(C3(C)OCCO3)ccc21 | 81 to 83
CCC(CC)c1ccc(Cl)c2nc3n(c12)CCCCN3c1ccc(S(C)=O)cc1C (stereo not given) | 189 to 190
CN(C)S(=O)(=O)c1cc([N+](=O)[O-])ccc1Cl | 138 to 140
N#CCN1C(=O)COc2cc(F)c(N3C(=O)C4=C(CCCC4)C3=O)cc21 | 216 to 220
CC(C)(C)OC(=O)NC(Cc1ccc(CO)cc1)c1cccnc1 (stereo not given) | 130
N#CC(C(=O)CF)c1cccc(Cl)c1 (stereo not given) | 90 to 96
C=C(C)C(=O)OCCCc1ccc(-c2ccc(OC(=O)C(=C)C)cc2)cc1 | 69

Next, values leading:

melting point [°C] | Structure (SMILES)
155 | COC(=O)c1sc2c(C(F)(F)F)cccc2c1C1CCN(C(C)=O)CC1
213 to 214 | Fc1ccc(-c2nn3c(c2-c2ccncc2)NCC3)cc1
137 to 141 | O=C1NCCN1CCN1CCC(c2noc3cc(F)ccc23)CC1
88 to 90 | Cc1ccc(S(=O)(=O)OCC2Cc3cccc(Nc4ccc(C)c(C)c4)c3O2)cc1 (stereo not given)
70 to 72 | OCc1cc(N2CCCCC2)ncn1
46 to 48 | CC(=O)C(=Cc1ccc(C(F)(F)F)cc1)C(C)=O
138 to 139 | Cc1noc(NC(=O)NCCC2CCN(Cc3ccccc3)CC2)n1
202 | Cc1cn2c(nc1=O)CCCCC2
177 to 178 | CC(C(N)=O)c1cccc2c1Oc1ccccc1CC2=O (stereo not given)
174 to 176 | CC(=O)C1CCC2C3CCC4CC(O)C(N5CCOC(C)(C)C5)CC4(C)C3CCC12C (stereo not given)
99 to 102 | CCCCCc1scc2c1n(C(=O)OC)c(=O)n2C(=O)OC
159 to 160 | Cc1c(C)c2c(c(C)c1NS(C)(=O)=O)CC(C)(C)O2
157 to 160 | C=C1CCN(S(=O)(=O)c2ccc(Cl)c(C(=O)O)c2)CC1
72 to 73.5 | C=C(C)OC(=O)c1ccc(C(=O)OC(=C)C)cc1
118 to 120 | COc1ccc(COC(=O)C(N)CCCCNC(=O)OC(C)(C)C)cc1 (stereo not given)
153 to 156 | O=C(c1ccccc1Nc1ccncc1)N1CCCCC1
65 to 66 | N#CN(c1ccccc1)S(=O)(=O)c1ccccc1
274 to 276 | Cc1nn(Cc2ccccc2)c2c1c(=O)n(-c1ccccc1)c1ncccc21
112 to 114 | O=C1C(=Cc2ccncc2)CCc2ccccc21
252 to 255 | Cc1ccccc1-c1c2c(cc3ccc4c(c13)OCO4)C(=O)NC2
204 to 205 | CCOCc1nc2c(N)nc3cc(-c4ccsc4)ccc3c2n1CC(C)(C)O
102 to 104 | O=[N+]([O-])c1cccc(/C=C/c2nc(C3CCCCC3)cs2)c1
97.5 to 98.5 | COC(=O)CCC/C=C(\c1cc(F)cc(C(F)(F)F)c1)c1cc(C)c2on(C)c(=O)c2c1
125 to 126 | CCCCCCc1ccc(S(=O)(=O)Nc2nncs2)cc1

melting point [°C] | Structure (SMILES)
189 to 190 | O=C(O)CC(CC(=O)O)NC(=O)OCC1c2ccccc2-c2ccccc21
289 | FC(F)(F)c1cc(-c2ccc(Br)cc2)nc2c(-c3ccncc3)cnn12
146 | N#CNC(=NCCc1ccccc1Cl)c1cncc(NCc2ccccc2)c1
105 to 110 | Cc1noc(NS(=O)(=O)c2ccccc2-c2ccc(-c3ncco3)cc2CN2CCN(C(C)C)C2=O)c1C
129 to 130 | CC1(CN2CCC(OCc3ccc(Cl)cc3)CC2)Cn2cc([N+](=O)[O-])nc2O1 (stereo not given)
220 to 221 | COc1nc(C)c(N2CCCn3c2nc2c(Cl)ccc(C(O)(C4CC4)C4CC4)c23)c(C)n1
190 to 192 | Cc1nc(Cl)c2c(n1)CN=C(c1ccccc1)c1cc(Cl)ccc1-2
54 to 55 | CCCCOC(=O)c1ccc(C#N)cc1
140 to 141 | CCCc1c(C(N)=O)sc(SC)c1-c1oncc1-c1ccccc1
172 to 174 | CC(C)(C)c1ccc(C=O)cc1NC(=O)CC1c2ccccc2Oc2ccccc21
178 to 183 | CN(Cc1cccc(Cl)c1)c1ccc(C(N)=O)nc1
211 to 213 | COc1ccc(NC(=O)c2ccc(OC)c(C34CC5CC(CC(C5)C3)C4)c2)c(N)c1
116 to 117 | O=C(c1ccc(I)cc1)N1CCOCC1
154 | CS(=O)(=O)Nc1cc2c(cc1Oc1ccccc1)C(NS(C)(=O)=O)C=C2 (stereo not given)
192 to 193 | Cc1c(C(=O)O)oc2ccccc2c1=O
90 to 100 | CCOCCn1c(N2CCCN(CCC3(c4ccc(OC)c(OC)c4)CCN(C(=O)c4cc(OC)c(OC)c(OC)c4)C3)CC2)nc2ccccc21 (stereo not given)
131 to 132 | CCOC(=O)c1sc(SC)c2c1CCc1nc(C)oc1-2
51 to 52 | CCc1nc(Cl)c([N+](=O)[O-])c(NC(C)C)n1
123 to 126 | COc1cccc(C2C(CO)CC(=O)N2c2ccccc2)c1 (stereo not given)
87 to 89 | COC(=O)/C=C/c1ccc(CCC(C)NCC(O)c2cccc(Cl)c2)cc1 (stereo not given)
> 182 | CCOc1c(-c2ccc(N(C)C)c(O)c2)c(=O)c1=O
267 to 270 | O=c1[nH]c2cc(C(F)(F)F)ccc2c(-c2cc(Cl)ccc2O)c1NS(=O)(=O)C(F)(F)F
195 to 205 | CCCc1c(COc2ccc3c(=O)cc(C(=O)O)oc3c2CCC)ccc(C(C)=O)c1O
